Where a SMILES comes first, the peptide text is derived from it. [ ]: non-standard residue; d: D form.
How the values were obtained:
patients = assay: Clinical application in patients with severe pain; type: in vivo, humans
Method: The use of the peptide compound in patients who have been informed about the drug and who have given their consent
When the morphine drug therapy was once again possible, the use of the experimental prototype of the drug was stopped.
Based on the extrapolation of animal data for dosages for humans, we decided to use 0.7-3 mg of the active tetrapeptide in a single dose, administered by subcutaneous injection, and under the supervision of a specialist. The drug was packaged in lyophilized form of 3 mg per vial before use and dissolved in 1-3 ml of water for injections.
The following parameters were recorded:
1. Time of onset of analgesic effect, duration of effect.
Dynamics of pain on a numerical scale of 0-10: 0—no pain, 10—unbearable pain. The patient makes regular notes on the intensity level of pain during treatment to assess the analgesic effect. Separately, the intensity of pain is noted before receiving the experimental prototype preparation, and during its' administration. 2. The physical activity of the patient. Measured on a scale: 1—normal activity, 2—activity is reduced; the patient is able to go to their own doctor, 3—bed rest at least 50% of the day, 4—bed rest for more than 50% of the day, 5—complete bed rest. 3. Subjective feelings of the patient A change of perception, mood, presence/absence of euphoria or dysphoria, discomfort in the body, feelings in the digestive tract.
Basically, the study was conducted in patients with somatic and internal types of pain, though often it was not possible to accurately classify the type of pain.

mice [1] = assay: Duration of analgesic effect in the tail flick test in mice; type: in vivo
Method: This stage involved selecting the effective doses of peptide compound in the tail flick test in mice after a single subcutaneous administration of the substance at doses of 0.01, 0.05, 0.1, 0.5, 0.7, 1 and 5 mg/kg. Tail flick method is based on a spinal flexion reflex in response to a progressively increasing effect of thermal radiation on the surface of skin. A pain stimulus was applied to the tail locally, by the action of thermal radiation, using a TSE Systems analgesiometer (Germany). Stimulus intensity was set, corresponding to an increase in temperature from 30° C. to 60° C. over 13 seconds. The tail flick latency (TFL) of 13 seconds was used as the maximum allowable time of stimulation. The mice in test groups were given peptide compound, and control group mice were given the solvent (water for injections) by subcutaneous. Tail flick latency was evaluated 40 minutes after the administration of the study substance or solvent. The analysis of experimental results involved calculating the maximum possible effect (MPE).
The duration of analgesic effect of peptide compound was evaluated in the tail flick test in mice as described above.
Peptide compound was administered to mice subcutaneously at a doses of 0.5 mg/kg, 1.5 mg/kg and 4.5 mg/kg. The control group of animals was given a subcutaneous injection of the vehicle (water for injections). TFL test was evaluated in mice that received peptide compound at 30 minutes and at 1, 2, 4, 6, and 8 hours after dosing.

mice [2] = assay: Open field test and toxicity of high doses in mice; type: in vivo; settings: intraperitoneally
Method: Testing of the influence of the injectable substance based on tetrapeptide (as in example 2) H-Tyr-D-Arg-Phe-Gly-NH2 on the behavior of animals, was provided in the study of the toxicity of high doses of the “open field” test and maintaining balance on a horizontal rod.
The aim of the experiment was to identify an effective dose of the substance that affects the behavior of the animals. It was tested on several animals after administration of different doses of peptide compound.
The experimental and control groups of male mice were taken from the same batch, about the same weight (22-24 g).
The substance was injected intraperitoneally in identical weight amounts to laboratory animals in the experimental and control groups, respectively. […] The measurement was started 15 minutes after injection.
Several groups were organized: without the introduction of the substance, and with the introduction of a solution of morphine or peptide. After 15 from injection we conducted measurement in the following order:
Each animal tested was introduced into a round, not brightly lit arena. The surface is divided into square blocks of 10 cm each. We count locomotor activity of the mouse when it crossed the square. The movement of the mouse in the center of the arena and on the periphery, are recorded separately. We registered the number of times the mouse stands on its hind legs “stand” and the number of times the mouse looks into a “burrow”—ie. holes in the floor. Observations were done visually and were simultaneously entered into a computer using a keyboard (semi-automatic registration).

N=C(N)NCCC[C@@H](NC(=O)[C@@H](N)Cc1ccc(O)cc1)C(=O)N[C@@H](Cc1ccccc1)C(=O)NCC(N)=O [Peptide compound, H-Tyr-D-Arg-Phe-Gly-NH2] (H-Y[dR]FG-NH2)
duration of analgesic effect (patients; Patient 1, 3 mg 2 times a day): 8 to 12 h | subjective feelings / negative effects (patients; Patient 1, 3 mg 2 times a day, first injection): very light dysphoric effect for 10-15 minutes | degree of analgesia, pain scale 0-10 (patients; Patient 1, pain before 6-9, 3 mg 2 times a day): 1-3 | Time of analgesia (onset) (patients; Patient 1, pancreatic cancer stage IV, pain 6-9, 3 mg 2 times a day subcutaneous, 5 days): 10 to 15 min | duration of analgesic effect (patients; Patient 2): 6 to 12 h | negative effects (patients; Patient 2): No negative effects were detected | degree of analgesia, pain scale 0-10 (patients; Patient 2, 2 mg three times first day, then 1.5 mg 2 times a day): 2-3 | Time of analgesia (onset) (patients; Patient 2, colon cancer stage IV, 2 mg three times first day, then 1.5 mg 2 times a day, 4 days): 10 to 15 min | duration of analgesic effect (patients; Patient 3): 8 to 10 h | negative effects (patients; Patient 3): No negative effects were detected | Time of analgesia (onset) (patients; Patient 3, colon cancer stage IV, pain 7-10, 1.5 mg 2 times a day, 4 days): 10 to 15 min | degree of analgesia, pain scale 0-10 (patients; Patient 3, pain before 7-10, 1.5 mg 2 times a day): 1-3 | duration of analgesic effect (patients; Patient 4): 8 to 10 h | negative effects (patients; Patient 4): No negative effects were detected | time of analgesic effect (onset) (patients; Patient 4, breast cancer stage IV, pain 7-10, 1.5 mg 2 times a day, 5 days): 10 to 20 min | degree of analgesia, pain scale 0-10 (patients; Patient 4, pain before 7-10, 1.5 mg 2 times a day): 1-3 | duration of analgesic effect (patients; Patient 5): 8 to 10 h | negative effects (patients; Patient 5): No negative effects were detected | Time of analgesia (onset) (patients; Patient 5, breast cancer stage IV, pain 7-8, 0.7 mg two times a day, 6 days): 10 to 15 min | degree of analgesia, pain scale 0-10 (patients; Patient 5, pain before 7-8): 1-3 | duration of analgesic effect (patients; Patient 6): 8 to 12 h | negative effects (patients; Patient 6): No negative effects were detected | Time of analgesia (onset) (patients; Patient 6, compression fracture of a vertebra, pain 7-8, 1.5 mg 2 times a day, 2 days): 10 to 15 min | degree of analgesia, pain scale 0-10 (patients; Patient 6, pain before 7-8): 1-3 | adverse reactions (impaired consciousness, euphoria or dysphoria, digestive tract, respiratory depression, heart disorders) (patients; all of the cases (Patients 1-6)): no adverse reactions | MPE, % (Mean ± SEM) (mice [1]; 0.5 mg/kg subcutaneous, 0.5 hours): 45.6 ± 13.31% | MPE, % (Mean ± SEM) (mice [1]; 0.5 mg/kg subcutaneous, 1 hours): 49.9 ± 11.54% | MPE, % (Mean ± SEM) (mice [1]; 0.5 mg/kg subcutaneous, 2 hours): 15.5 ± 4.78% | MPE, % (Mean ± SEM) (mice [1]; 0.5 mg/kg subcutaneous, 4 hours): 6.3 ± 2.43% | MPE, % (Mean ± SEM) (mice [1]; 0.5 mg/kg subcutaneous, 6 hours): 6.3 ± 2.94% | MPE, % (Mean ± SEM) (mice [1]; 0.5 mg/kg subcutaneous, 8 hours): −2.6 ± 3.18% | MPE, % (Mean ± SEM) (mice [1]; 1.5 mg/kg subcutaneous, 0.5 hours): 97.2 ± 2.78% | MPE, % (Mean ± SEM) (mice [1]; 1.5 mg/kg subcutaneous, 1 hours): 62.7 ± 14.4% | MPE, % (Mean ± SEM) (mice [1]; 1.5 mg/kg subcutaneous, 2 hours): 33.4 ± 4.85% | MPE, % (Mean ± SEM) (mice [1]; 1.5 mg/kg subcutaneous, 4 hours): 25.6 ± 11.69% | MPE, % (Mean ± SEM) (mice [1]; 1.5 mg/kg subcutaneous, 6 hours): 4.6 ± 7.8% | MPE, % (Mean ± SEM) (mice [1]; 1.5 mg/kg subcutaneous, 8 hours): 5.3 ± 3.46% | MPE, % (Mean ± SEM) (mice [1]; 4.5 mg/kg subcutaneous, 0.5 hours): 100.0 ± 0.00% | MPE, % (Mean ± SEM) (mice [1]; 4.5 mg/kg subcutaneous, 1 hours): 100.0 ± 0.00% | MPE, % (Mean ± SEM) (mice [1]; 4.5 mg/kg subcutaneous, 2 hours): 100.0 ± 0.00% | MPE, % (Mean ± SEM) (mice [1]; 4.5 mg/kg subcutaneous, 4 hours): 49.9 ± 10.21% | MPE, % (Mean ± SEM) (mice [1]; 4.5 mg/kg subcutaneous, 6 hours): 6.5 ± 5.94% | MPE, % (Mean ± SEM) (mice [1]; 4.5 mg/kg subcutaneous, 8 hours): 2.6 ± 4.0% | maximum duration of the analgesic effect (mice [1]; after dosing with 1.5 mg/kg and 4.5 mg/kg): 4 h | doses that do not result in toxic effects (mice [2]): up to 200 EC50 | toxic effects (mice [2]; dose of 100 mg/kg): the animals continued to move actively, breathing was not inhibited, and heart beats were stable | reduced activity moving around the field (mice [2]; open field, dose of 20-100 mg/kg, 15 minutes after injection): 20-25% | reduction in exploratory activity ("stand-burrow") (mice [2]; open field, large doses): 20-30%

From US10357533B2, “Drug for the effective control of acute and or chronic pain and a method for its administration” (PVP LABS PTE. LTD., priority 2016, dated 2019)
